Assay results: EP0620225B1, “Cephalosporin derivatives” (Basilea Pharmaceutica AG, priority 1993, dated 1994)
Values after ≈ are worked out from the molar mass of the structure shown.

Legend:
[1] = tested on: Streptococcus pyogenes 15; assay: Efficacy against systemic infections (septicemia) in mice; format: in vivo; details: 96 h, Streptococcus pyogenes 15, po (orally) 1 and 3 h after challenge, survival day 4
In short: (§1)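 Swiss albino mice (16–20 g) infected i.p. with 4–10× the 48-h LD50 of each strain; compound given p.o. or s.c. at 1 and 3 h post-challenge, plus 5 h for P. aeruginosa BA. Five mice per group; ED50 (mg/kg) by probit analysis of day-4 survival.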

Escherichia coli 25922 = assay: as above; format: in vivo; details: 96 h, survival day 4
In short: as §1

S.viridans group = assay: In vitro activity against selected species (MIC50, MIC90, range); format: cell-based; details: Streptococcus viridans
S.viridans group 016 = assay: Antibacterial spectrum (MIC), agar dilution; format: cell-based; details: Streptococcus viridans, read-out: MIC
Experimental: (§2) In vitro activity was determined by minimum inhibitory concentration in a microorganism spectum by the agar dilution method in Mueller Hinton agar.

S.aureus 6538 = assay: Antibacterial spectrum (MIC), agar dilution; format: cell-based; details: Staphylococcus aureus, read-out: MIC
Experimental: as §2

M.catarrhalis RA21 = assay: Antibacterial spectrum (MIC), agar dilution; format: cell-based; details: Moraxella catarrhalis, read-out: MIC
Experimental: as §2

E.cloacae 908R = assay: Antibacterial spectrum (MIC), agar dilution; format: cell-based; details: Enterobacter cloacae, read-out: MIC
Experimental: as §2

C.freundii 43 = assay: Antibacterial spectrum (MIC), agar dilution; format: cell-based; details: Citrobacter freundii, read-out: MIC
Experimental: as §2

E.coli 25922 = assay: Antibacterial spectrum (MIC), agar dilution; format: cell-based; details: Escherichia coli, read-out: MIC
Experimental: as §2

P.aeruginosa 27853 = assay: Antibacterial spectrum (MIC), agar dilution; format: cell-based; details: Pseudomonas aeruginosa, read-out: MIC
Experimental: as §2

K.pneumoniae 418 = assay: Antibacterial spectrum (MIC), agar dilution; format: cell-based; details: Klebsiella pneumoniae, read-out: MIC
Experimental: as §2

S.pyogenes B15 = assay: Antibacterial spectrum (MIC), agar dilution; format: cell-based; details: Streptococcus pyogenes, read-out: MIC
Experimental: as §2

M.morganii 6H-137 = assay: Antibacterial spectrum (MIC), agar dilution; format: cell-based; details: Morganella morganii, 6H137, read-out: MIC
Experimental: as §2

B.fragilis ATCC25285 = assay: Antibacterial spectrum (MIC), agar dilution; format: cell-based; details: Bacteroides fragilis, read-out: MIC
Experimental: as §2

S.agalactiae QK44 = assay: Antibacterial spectrum (MIC), agar dilution; format: cell-based; details: Streptococcus agalactiae, read-out: MIC
Experimental: as §2

L.monocytogenes BK23 = assay: Antibacterial spectrum (MIC), agar dilution; format: cell-based; details: Listeria monocytogenes, read-out: MIC
Experimental: as §2

E.faecalis 6 = assay: Antibacterial spectrum (MIC), agar dilution; format: cell-based; details: Enterococcus faecalis, read-out: MIC
Experimental: as §2

P.vulgaris 1028 = assay: Antibacterial spectrum (MIC), agar dilution; format: cell-based; details: Proteus vulgaris, read-out: MIC
Experimental: as §2

C.freundii 902 = assay: Antibacterial spectrum (MIC), agar dilution; format: cell-based; details: Citrobacter freundii, read-out: MIC
Experimental: as §2

P.mirabilis 2117 = assay: Antibacterial spectrum (MIC), agar dilution; format: cell-based; details: Proteus mirabilis, read-out: MIC
Experimental: as §2

S.marcescens 69438 = assay: Antibacterial spectrum (MIC), agar dilution; format: cell-based; details: Serratia marcescens, read-out: MIC
Experimental: as §2

C.difficile ZH1 = assay: Antibacterial spectrum (MIC), agar dilution; format: cell-based; details: Clostridioides difficile, read-out: MIC
Experimental: as §2

S.pneumoniae Q19 = assay: Antibacterial spectrum (MIC), agar dilution; format: cell-based; details: Streptococcus pneumoniae, read-out: MIC
Experimental: as §2

E.cloacae 908SSi = assay: Antibacterial spectrum (MIC), agar dilution; format: cell-based; details: Enterobacter cloacae, read-out: MIC
Experimental: as §2

H.influenzae 1 = assay: Antibacterial spectrum (MIC), agar dilution; format: cell-based; details: Haemophilus influenzae, read-out: MIC
Experimental: as §2

N.meningitidis 69480 = assay: Antibacterial spectrum (MIC), agar dilution; format: cell-based; details: Neisseria meningitidis, read-out: MIC
Experimental: as §2

S.aureus 734 MRSA = assay: Antibacterial spectrum (MIC), agar dilution; format: cell-based; details: Staphylococcus aureus, read-out: MIC
Experimental: as §2

P.asaccharolyticus 29743 = assay: Antibacterial spectrum (MIC), agar dilution; format: cell-based; details: Peptoniphilus asaccharolyticus, read-out: MIC
Experimental: as §2

Acinetobacter sp.51-156 = assay: Antibacterial spectrum (MIC), agar dilution; format: cell-based; details: SP.51156, read-out: MIC
Experimental: as §2

X.maltophilia 1AC739 = assay: Antibacterial spectrum (MIC), agar dilution; format: cell-based; details: Stenotrophomonas maltophilia, read-out: MIC
Experimental: as §2

M.catarrhalis = assay: In vitro activity against selected species (MIC50, MIC90, range); format: cell-based; details: Moraxella catarrhalis, medium IsoB
S.aureus Smith = assay: Efficacy against systemic infections (septicemia) in mice; format: in vivo; details: Staphylococcus aureus, 96 h, sc 1 and 3 h after challenge, survival day 4
In short: as §1

E.faecium = assay: In vitro activity against selected species (MIC50, range); format: cell-based; details: Enterococcus faecium, medium MHA
Experimental: as §2

S.pneumoniae PEN-R = assay: In vitro activity against selected species (MIC50, MIC90, range); format: cell-based; details: Streptococcus pneumoniae; for MIC: MIC range
S.aureus MSSA = assay: as above; format: cell-based; details: Staphylococcus aureus, medium MHB (Mueller Hinton Broth)
S.aureus MRSA = assay: as above; format: cell-based; details: Staphylococcus aureus, medium MHA (Mueller Hinton Agar) +NaCl
Experimental: as §2

E.faecalis [2] = assay: as above; format: cell-based; details: Enterococcus faecalis, medium MHA
Experimental: as §2

E.faecalis [3] = assay: as above; format: cell-based; details: Enterococcus faecalis, medium IsoB
[4] = Escherichia coli 25922, po (orally) 1 and 3 h after challenge
[5] = medium IsoB (Isosensitest Broth)

C=CC1=C(C(=O)O)N2C(=O)[C@@H](NC(=O)/C(=N\OCC(=O)O)c3csc(N)n3)[C@H]2SC1 [Cefixime, reference compound]
ED50 [1]: 2 mg/kg
ED50 (Escherichia coli 25922; [4]): 0.5 mg/kg

Nc1nc(/C(=N/O)C(=O)N[C@@H]2C(=O)N3C(C(=O)O)=C(/C=C4\CCN(CC(F)(F)F)C4=O)CS[C@H]23)cs1 [E, [6R-[3(E),6α,7β(Z)]]-7-[[(2-Amino-4-thiazolyl)(hydroxyimino)-acetyl]amino]-3-[[1-(2,2,2-trifluoroethyl)-2-oxo-3-pyrrolidinylidene]-methyl]-8-oxo-5-thia-1-azabicyclo[4.2.0]oct-2-ene-2-carboxylic acid]
MIC50 (S.viridans group): 2 µg/mL (≈ 3.66 µM)
MIC90 (S.viridans group): 2 µg/mL (≈ 3.66 µM)
MIC (S.viridans group; MIC range): 0.12 to 4 µg/mL (≈ 0.22 to 7.32 µM)
MIC (S.viridans group 016): 1 µg/mL (≈ 1.83 µM)
MIC (S.aureus 6538): 0.5 µg/mL (≈ 0.915 µM)
MIC (M.catarrhalis RA21): 16 µg/mL (≈ 29.3 µM)
MIC (E.cloacae 908R): 16 µg/mL (≈ 29.3 µM)
MIC (C.freundii 43): 4 µg/mL (≈ 7.32 µM)
MIC (E.coli 25922): 0.12 µg/mL (≈ 0.22 µM)
MIC (P.aeruginosa 27853): 16 µg/mL (≈ 29.3 µM)
MIC (K.pneumoniae 418): 0.12 µg/mL (≈ 0.22 µM)
MIC (S.pyogenes B15): ≤ 0.06 µg/mL
MIC (M.morganii 6H-137): ≤ 0.06 µg/mL
MIC (B.fragilis ATCC25285): 8 µg/mL (≈ 14.6 µM)
MIC (S.agalactiae QK44): 0.25 µg/mL (≈ 0.457 µM)
MIC (L.monocytogenes BK23): 4 µg/mL (≈ 7.32 µM)
MIC (E.faecalis 6): 1 µg/mL (≈ 1.83 µM)
MIC (P.vulgaris 1028): 1 µg/mL (≈ 1.83 µM)
MIC (C.freundii 902): 0.12 µg/mL (≈ 0.22 µM)
MIC (P.mirabilis 2117): ≤ 0.06 µg/mL
MIC (S.marcescens 69438): 1 µg/mL (≈ 1.83 µM)
MIC (C.difficile ZH1): 8 µg/mL (≈ 14.6 µM)
MIC (S.pneumoniae Q19): ≤ 0.06 µg/mL
MIC (E.cloacae 908SSi): 0.25 µg/mL (≈ 0.457 µM)
MIC (H.influenzae 1): 0.25 µg/mL (≈ 0.457 µM)
MIC (N.meningitidis 69480): ≤ 0.06 µg/mL
MIC (S.aureus 734 MRSA): 8 µg/mL (≈ 14.6 µM)
MIC (P.asaccharolyticus 29743): ≤ 0.12 µg/mL
MIC (Acinetobacter sp.51-156): 16 µg/mL (≈ 29.3 µM)
MIC (X.maltophilia 1AC739): > 32 µg/mL
MIC (M.catarrhalis; MIC range): 1 to 16 µg/mL (≈ 1.83 to 29.3 µM)
MIC50 (M.catarrhalis): 4 µg/mL (≈ 7.32 µM)
MIC90 (M.catarrhalis): 16 µg/mL (≈ 29.3 µM)
ED50 (S.aureus Smith): < 1 mg/kg
ED50 (Escherichia coli 25922; [4]): 3 mg/kg
ED50 (Escherichia coli 25922; Escherichia coli, E.coli 25922, sc 1 and 3 h after challenge): 0.07 mg/kg
MIC (E.faecium; MIC range): 1 to 16 µg/mL (≈ 1.83 to 29.3 µM)
MIC50 (E.faecium): 4 µg/mL (≈ 7.32 µM)
MIC (S.pneumoniae PEN-R; [5]): 0.12 to 0.5 µg/mL (≈ 0.22 to 0.915 µM)
MIC (S.pneumoniae PEN-R; medium IsoB + 20% serum): 0.25 to 0.5 µg/mL
MIC50 (S.pneumoniae PEN-R; [5]): 0.25 µg/mL (≈ 0.457 µM)
MIC90 (S.pneumoniae PEN-R; [5]): 0.5 µg/mL (≈ 0.915 µM)
MIC50 (S.pneumoniae PEN-R; medium IsoB + 20% serum): 0.5 µg/mL
MIC (S.aureus MSSA; MIC range): 0.5 to 1 µg/mL (≈ 0.915 to 1.83 µM)
MIC50 (S.aureus MSSA): 1 µg/mL (≈ 1.83 µM)
MIC90 (S.aureus MSSA): 1 µg/mL (≈ 1.83 µM)
MIC (S.aureus MRSA; MIC range): 8 to 16 µg/mL (≈ 14.6 to 29.3 µM)
MIC50 (S.aureus MRSA): 8 µg/mL (≈ 14.6 µM)
MIC90 (S.aureus MRSA): 8 µg/mL (≈ 14.6 µM)
MIC (E.faecalis [2]; MIC range): 1 to 2 µg/mL (≈ 1.83 to 3.66 µM)
MIC50 (E.faecalis [2]): 1 µg/mL (≈ 1.83 µM)
MIC90 (E.faecalis [2]): 2 µg/mL (≈ 3.66 µM)
MIC (E.faecalis [3]; MIC range): 0.25 to 2 µg/mL (≈ 0.457 to 3.66 µM)
MIC50 (E.faecalis [3]): 0.5 µg/mL (≈ 0.915 µM)
MIC90 (E.faecalis [3]): 2 µg/mL (≈ 3.66 µM)
